# Results reported in patent US20070203066A1, “Compositions and methods for inhibiting cellular proliferation” (priority 2005, published 2007).
# Non-standard residues stand in square brackets, D forms with d. Primed or numbered codes have the meaning given here. No end group written: not given here. Ida(3) = iminodiacetic acid linker, Lys side-chain amines bound to its two carboxyl groups; Ida″ = iminodiacetic acid linker bound to the Lys side-chain amine, forming a dimer; Ahx = NCCCCCC(=O)O
# Test system: HUVECs
# Assay type: cell-based
# Settings: HUVEC proliferation, bFGF at 10 ng/ml or VEGF at 5 ng/ml, 48 hours, BrdU incorporation; read-out: IC50 on HUVECs
# Summary of the method: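 HUVECs seeded at 5,000 cells/well in EBM with 2% FCS, adhered ≥12 hours, then stimulated with bFGF 10 ng/ml or VEGF 5 ng/ml plus varying peptide concentrations. After 48 hours at 37 ° C, 5% CO2, proliferation inhibition read by BrdU incorporation.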
row,Substance,IC50
1,"202 (Ac-RRAARQRVRIIF; also: dimer: C-terminal Phe bound to an amino group of a Lys linker, 2 chains per Lys) [compound 202]",< 10 µM
2,"383 (Ac-ARRRRQFVAIYFK-NH2; not fully specified (residue 13); also: homodimer via Ida linker on Lys13 side chain, Ida amine Boc) [compound 383]",< 10 µM
3,RKKQRVKIIF [compound 84],> 30 µM
4,232 (XRRRHQRVRIIF; Xaa = Acylated Histidine; Dimeric peptide wherein the C terminus of Phe in position 12 of one peptide chain is covalently bound to one of the amino groups of a Lysine linker and Phe of the remaining peptide chain is covalently bound to the other amino group of the Lysine linker.) [compound 232],< 10 µM
5,255 (Ac-ARRRRQRVA[dI]IFK-NH2; not fully specified (residue 13); also: homodimer via Ida linker on Lys13 side chains) [compound 255],< 10 µM
6,497 (Ac-PRLRRQAVAIYFK(Ida″); not fully specified (C-terminus); also: homodimer via Ida linker on Lys13 side chain) [compound 497],10 to 30 µM
7,269 (Ac-ARRRRQRVAIEFK-NH2; not fully specified (residue 13); also: homodimer: side chain of Lys13 bound to an Ida linker) [compound 269],10 to 30 µM
8,"28 (Ac-RTRRRRRRQRVRIAYEEIFVRNM[Ahx]K-NH2; not fully specified (residue 25); also: homodimer via Ida linker on Lys25 side chain, Ida amino group carries Boc) [compound 28]",< 10 µM
9,168 (Ac-RRRRRQRVRIIFK; also: homodimer via GP3 linker on Lys13 side chains) [compound 168],< 10 µM
10,471 (Ac-PRRRFQAVAIYFK(Ida(3)); not fully specified (C-terminus); also: homodimer via Ida linker on Lys13 side chain) [compound 471],> 30 µM
11,218 (Ac-RARRRQAVAIIF; also: dimer: Phe C-termini joined via Lys linker) [compound 218],< 10 µM
12,RKRKKQRVKIIFV [compound 90],10 to 30 µM
13,KTKRKRKKQRVKIAYEEVFVKNM [compound 6],< 10 µM
14,KTKRKRKKQAYEEIFVQNM [compound 29],> 30 µM
15,"422 (Ac-ARRRRQTVAIYFK; not fully specified (residue 13, C-terminus); also: homodimer of residues 1-13 via Ida linker on K13 side chain) [compound 422]",< 10 µM
16,356 (Ac-A[dR]RRRQRVAIIFK; not fully specified) [compound 356],> 30 µM
17,"188 (Ac-RRRRHQRVRIIF; also: dimer: C-terminal Phe bound to an amino group of a Lys linker, 2 chains per Lys) [compound 188]",< 10 µM
18,483 (Ac-QRRRRQAVAIKF; not fully specified (residue 11); also: homodimer via Ida linker on Lys11 side chain) [compound 483],< 10 µM
19,"406 (Ac-MRRRRQAVAIYFK; not fully specified (residue 13, C-terminus); also: homodimer via Ida linker on Lys side chains, linker at 13 via Ida, other end not in the chain) [compound 406]",< 10 µM
20,510 (Ac-ARRRRERVAIYFK; not fully specified (C-terminus); also: homodimer via Ida linker at Lys13 side chain) [compound 510],< 10 µM
21,KTKRKRKKQRVKIIFVQAM [compound 106],< 10 µM
